Data: patent publication US20210115104A1, “AMYLIN ANALOGUES” (Zealand Pharma A/S, priority 2015, published 2021)
*1 amine or outer side, *2 acyl side, *3 side chain or, on linkers, in order; H or OH if unused. Where a SMILES comes first, the peptide text is derived from it. Bridges are numbered along the chain shown (N, C = ends). [ ]: non-standard residue; d: D form. The star is where a group is joined. C20 diacid = O=C(O)CCCCCCCCCCCCCCCCCCC(=O)*; γGlu = O=C(O)[C@H](CCC(=O)[*:2])N[*:1]; Hyp = O=C(O)[C@@H]1C[C@@H](O)CN1; NMeI = CC[C@H](C)[C@H](NC)C(=O)O; Sar = CNCC(=O)O

Assays:
[1] = Assessment of physical stability (Thioflavin T fibrillation); format: physicochemical; design: key: FND = fibrillation not detected; FD = fibrillation detected; settings: 1 mg/ml, 40° C., ThT
Method in brief: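 Fibrillation lag-time, in hours, taken where regressions of the initial stable phase and the growth phase intersect. ThT (40 μM) fluorescence monitored at 40 °C for 96 h, 10-min reads each preceded by 300 s mixing. Peptide at 1 mg/ml in 50 mM buffers: phosphate or histidine pH 7.0, acetate pH 4.0.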

[2] = molecular target: T1, human amylin receptor 3 (hAMYR3), hCTR2 co-expressed with hRAMP3 (Homo sapiens, UniProt O60896+P30988); assay: hAMYR3 cAMP assay (AlphaScreen) in COS7 cells; format: cell-based; settings: cAMP induction, COS7 cells expressing hAMYR3; Table 1; read-out: hAMYR3 EC50
T1 construct: expressed in transfected cells
T1 sequence (P30988 25-474): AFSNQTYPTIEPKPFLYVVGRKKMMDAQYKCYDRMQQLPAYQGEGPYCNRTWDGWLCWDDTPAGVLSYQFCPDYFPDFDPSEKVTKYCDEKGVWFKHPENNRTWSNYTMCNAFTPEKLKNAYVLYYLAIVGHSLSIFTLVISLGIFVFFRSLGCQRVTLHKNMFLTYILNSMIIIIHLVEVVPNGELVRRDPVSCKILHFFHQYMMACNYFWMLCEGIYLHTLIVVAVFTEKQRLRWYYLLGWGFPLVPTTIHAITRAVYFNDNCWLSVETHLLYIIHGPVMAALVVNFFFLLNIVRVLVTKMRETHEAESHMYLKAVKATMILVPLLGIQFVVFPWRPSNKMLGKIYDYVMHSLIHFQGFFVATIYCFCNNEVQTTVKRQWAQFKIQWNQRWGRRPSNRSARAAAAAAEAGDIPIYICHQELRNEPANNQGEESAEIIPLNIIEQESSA
T1 sequence (O60896 24-148 partner): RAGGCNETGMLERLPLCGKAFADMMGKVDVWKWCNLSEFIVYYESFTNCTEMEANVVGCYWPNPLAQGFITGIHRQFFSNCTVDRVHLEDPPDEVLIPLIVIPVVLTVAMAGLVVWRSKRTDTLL
Description: The cell line COS7, originating from African Green Monkey kidney fibroblast cells, was used for establishment of the stable cell lines described below. The COS7 cellular background was used due to it being RAMP naïve, and as such it provides the best available system for testing of the monomeric hCTR and different heterodimeric amylin receptor subtypes functionally generated by introduction of the individual RAMPs.
A cell line expressing the human amylin receptor 3 (hAMYR3) was generated in the COS7 cellular background as stable clones. In brief, hCTR2 (GI:4502547) and hRAMP3 (GI:118572586) were amplified by PCR using primers encoding terminal restriction sites for subcloning. The 5′-end primers additionally encoded a near Kozak consensus sequence to ensure efficient translation. The fidelity of the DNA encoding the receptor was confirmed by DNA sequencing. The PCR products encoding the receptor were subcloned into a proprietary tri-cistronic mammalian expression vector with RAMP3, hCTR2 and neomycin (G418) resistance marker. The mammalian expression vector encoding the receptor was transfected into COS7 cells by a standard liposome transfection method. 48 hours post-transfection, cells were seeded for limited dilution cloning and selected with 1 mg/ml G418 in the culture medium. After 3 weeks, surviving colonies of hAMY3R-expressing cells were picked, propagated and tested in the amylin efficacy assay as described in Example 3 below. The functional generation of the amylin receptor phenotype was verified in the efficacy assay by a left-shifted efficacy response to amylin relative to monomeric calcitonin receptor, and one hAMYR3-expressing clone was chosen for compound profiling.
In vitro activity of test peptides at the hCTR2 and hAMYR3 receptors was assessed by measuring the induction of cAMP following stimulation of the receptor using the AlphaScreen® cAMP Assay kit from Perkin-Elmer.
Briefly, COS7 cells expressing hCTR2 (see Example 2, above) were seeded at 30-40,000 cells per well in 96-well microtiter plates coated with 0.01% poly-L-lysine, and grown for 1 day in culture in 100 μl growth medium [DMEM, 10% FCS, Penicillin (100 IU/ml), Streptomycin (100 μg/ml)]. On the day of analysis, growth medium was removed and the cells were washed once with 200 μl Tyrode buffer [Tyrode's Salts (9.6 g/I), 10 mM HEPES, pH 7.4]. Cells were incubated in 100 μl Tyrode buffer containing increasing concentrations of test peptides, 100 µM IBMX and 0.1% casein for 15 min at 37° C. The reaction was stopped by carefully decanting off the compound/buffer medium and replacing it with lysis/detection buffer (80 μl 0.1% w/v BSA, 5 mM HEPES, 0.3% v/v Tween-20 in deionized water). After incubation at room temperature for 10 min., the cAMP content of the resulting cell lysate was estimated according to the AlphaScreen® cAMP Assay manufacturer's instructions. EC50 values were estimated by computer-aided curve fitting using the 4-parameter logistic (4PL) non-linear model.

| Compound | Fibrillation pH 4.0 (Ac) ([1]; 50 mM acetate buffer pH 4.0, 96 hours) | Fibrillation pH 7.0 (His) ([1]; 50 mM histidine buffer pH 7.0, 96 hours) | Fibrillation pH 7.0 (Phos.) ([1]; 50 mM phosphate buffer pH 7.0, 96 hours) | EC50 [2] [pM] |
| --- | --- | --- | --- | --- |
| CC[C@H](C)[C@@H](C(=O)N[C@@H](CC(C)C)C(=O)N[C@@H](CO)C(=O)N[C@@H](CO)C(=O)N[C@H](C(=O)N[C@@H](CCC(=O)O)C(=O)N[C@H](C(=O)NCC(=O)N[C@@H](CO)C(=O)N[C@@H](CCC(=O)O)C(=O)N[C@H](C(=O)N1CCC[C@H]1C(N)=O)[C@@H](C)O)C(C)C)[C@@H](C)O)N(C)C(=O)[C@H](C)NC(=O)CN(C)C(=O)[C@H](Cc1ccccc1)NC(=O)[C@H](CO)NC(=O)[C@H](CO)NC(=O)[C@H](CCCNC(=N)N)NC(=O)[C@@H](NC(=O)[C@H](CC(C)C)NC(=O)[C@H](Cc1ccccc1)NC(=O)[C@H](Cc1c[nH]cn1)NC(=O)[C@H](C)NC(=O)[C@H](CC(C)C)NC(=O)[C@H](CCCNC(=N)N)NC(=O)[C@H](CCC(=O)O)NC(=O)[C@@H](NC(=O)[C@H](C)NC(=O)[C@@H]1CSSC[C@H](NC(=O)[C@H](CCCNC(=N)N)NC(=O)CC[C@H](NC(=O)CCCCCCCCCCCCCCCCCCC(=O)O)C(=O)O)C(=O)NCC(=O)N[C@@H]([C@@H](C)O)C(=O)N[C@@H](C)C(=O)N[C@@H]([C@@H](C)O)C(=O)N1)[C@@H](C)O)C(C)C [Compound 22, [19CD]-isoGlu-R-C( )-GTAT-C( )-ATERLAHFLVRSSF-Gly(Me)-A-Ile(Me)-LSSTEVGSETP-NH2] ({C20 diacid-γGlu}-RCGTATCATERLAHFLVRSSF[Sar]A[NMeI]LSSTEVGSETP-NH2; disulfide 2-7) | FND | FD | FND | 590 |
| CC[C@H](C)[C@@H](C(=O)N[C@@H](CC(C)C)C(=O)N[C@@H](CO)C(=O)N[C@@H](CO)C(=O)N[C@H](C(=O)N[C@@H](CC(=O)O)C(=O)N[C@H](C(=O)NCC(=O)N[C@@H](CO)C(=O)N[C@@H](CC(N)=O)C(=O)N[C@H](C(=O)N1CCC[C@H]1C(N)=O)[C@@H](C)O)C(C)C)[C@@H](C)O)N(C)C(=O)[C@H](C)NC(=O)CN(C)C(=O)[C@H](Cc1ccccc1)NC(=O)[C@H](CO)NC(=O)[C@H](CO)NC(=O)[C@H](CCCNC(=N)N)NC(=O)[C@H](Cc1c[nH]cn1)NC(=O)[C@H](CC(C)C)NC(=O)[C@H](Cc1ccccc1)NC(=O)[C@H](Cc1c[nH]cn1)NC(=O)[C@H](C)NC(=O)[C@H](CC(C)C)NC(=O)[C@H](CCCNC(=N)N)NC(=O)[C@H](CC(=O)O)NC(=O)[C@@H](NC(=O)[C@H](C)NC(=O)[C@@H]1CSSC[C@H](NC(=O)[C@H](CCCNC(=N)N)NC(=O)CC[C@H](NC(=O)CCCCCCCCCCCCCCCCCCC(=O)O)C(=O)O)C(=O)N2CCC[C@H]2C(=O)N[C@@H]([C@@H](C)O)C(=O)N[C@@H](C)C(=O)N[C@@H]([C@@H](C)O)C(=O)N1)[C@@H](C)O [Compound 25, [19CD]-isoGlu-R-C( )-PTAT-C( )-ATDRLAHFLHRSSF-Gly(Me)-A-Ile(Me)-LSSTDVGSNTP-NH2] ({C20 diacid-γGlu}-RCPTATCATDRLAHFLHRSSF[Sar]A[NMeI]LSSTDVGSNTP-NH2; disulfide 2-7) |  |  |  | 94 |
| CC[C@H](C)[C@@H](C(=O)N[C@@H](CC(C)C)C(=O)N[C@@H](CO)C(=O)N[C@@H](CO)C(=O)N[C@H](C(=O)N[C@@H](CCC(=O)O)C(=O)N[C@H](C(=O)NCC(=O)N[C@@H](CO)C(=O)N[C@@H](CCC(=O)O)C(=O)N[C@H](C(=O)N1CCC[C@H]1C(N)=O)[C@@H](C)O)C(C)C)[C@@H](C)O)N(C)C(=O)[C@H](C)NC(=O)CN(C)C(=O)[C@H](Cc1ccccc1)NC(=O)[C@H](CO)NC(=O)[C@H](CO)NC(=O)[C@H](CCCNC(=N)N)NC(=O)[C@H](Cc1c[nH]cn1)NC(=O)[C@H](CC(C)C)NC(=O)[C@H](Cc1ccccc1)NC(=O)[C@H](Cc1c[nH]cn1)NC(=O)[C@H](C)NC(=O)[C@H](CC(C)C)NC(=O)[C@H](CCCNC(=N)N)NC(=O)[C@H](CCC(=O)O)NC(=O)[C@@H](NC(=O)[C@H](C)NC(=O)[C@@H]1CSSC[C@H](NC(=O)[C@H](CCCNC(=N)N)NC(=O)CC[C@H](NC(=O)CCCCCCCCCCCCCCCCCCC(=O)O)C(=O)O)C(=O)NCC(=O)N[C@@H]([C@@H](C)O)C(=O)N[C@@H](C)C(=O)N[C@@H]([C@@H](C)O)C(=O)N1)[C@@H](C)O [Compound 26, [19CD]-isoGlu-R-C( )-GTAT-C( )-ATERLAHFLHRSSF-Gly(Me)-A-Ile(Me)-LSSTEVGSETP-NH2] ({C20 diacid-γGlu}-RCGTATCATERLAHFLHRSSF[Sar]A[NMeI]LSSTEVGSETP-NH2; disulfide 2-7) |  |  |  | 120 |
| CC[C@H](C)[C@@H](C(=O)N[C@@H](CC(C)C)C(=O)N[C@@H](CO)C(=O)N[C@@H](CO)C(=O)N[C@H](C(=O)N[C@@H](CCC(=O)O)C(=O)N[C@H](C(=O)NCC(=O)N[C@@H](CO)C(=O)N[C@@H](Cc1ccccc1)C(=O)N[C@H](C(=O)N1C[C@H](O)C[C@H]1C(N)=O)[C@@H](C)O)C(C)C)[C@@H](C)O)N(C)C(=O)[C@H](C)NC(=O)CN(C)C(=O)[C@H](Cc1ccccc1)NC(=O)[C@H](CO)NC(=O)[C@H](CO)NC(=O)[C@H](CCCNC(=N)N)NC(=O)[C@@H](NC(=O)[C@H](CC(C)C)NC(=O)[C@H](Cc1ccccc1)NC(=O)[C@H](CC(=O)O)NC(=O)[C@H](C)NC(=O)[C@H](CC(C)C)NC(=O)[C@H](CCCNC(=N)N)NC(=O)[C@H](CCC(=O)O)NC(=O)[C@@H](NC(=O)[C@H](C)NC(=O)[C@@H]1CSSC[C@H](NC(=O)[C@H](CCCNC(=N)N)NC(=O)CC[C@H](NC(=O)CCCCCCCCCCCCCCCCCCC(=O)O)C(=O)O)C(=O)NCC(=O)N[C@@H]([C@@H](C)O)C(=O)N[C@@H](C)C(=O)N[C@@H]([C@@H](C)O)C(=O)N1)[C@@H](C)O)[C@@H](C)O [Compound 42, [19CD]-isoGlu-R-C( )-GTAT-C( )-ATERLADFLTRSSF-Gly(Me)-A-Ile(Me)-LSSTEVGSFT-Hyp-NH2] ({C20 diacid-γGlu}-RCGTATCATERLADFLTRSSF[Sar]A[NMeI]LSSTEVGSFT[Hyp]-NH2; disulfide 2-7) |  |  |  | 340 |
